The text below walks through data of publication PMC7591795, “Humulone Modulation of GABAA Receptors and Its Role in Hops Sleep-Promoting Activity” (Frontiers in Neuroscience, 2020).

In brackets after ≈: the same amount, converted by molar mass. Read-outs that look alike come from different tables or passages of the source.

Data set [1] addresses T1, recombinant α6β3 GABAA receptors (Rattus norvegicus, UniProt P30191+P63079).
T1 construct: expressed in transfected cells; host or cells: HEK293 cells, transient CaPO4 transfection, pRK5 plasmids (1:1); cell membranes used
Put plainly: [3H]EBOB binding assay, recombinant α6β3 receptors in HEK293 cell membranes. The conditions noted are these: GABA 3 μM. As to the method:
The cells were divided and plated on 150 mm culture dishes for binding assays and 12 mm coverslips in 24-well cell culture plates for electrophysiology 24 h before transfection.
The cells were transiently transfected with rat cDNAs encoding GABAA receptor subunits (α1, L08490; α6, L08495; β3, X15468; γ2S, L08497; δ, L08496) in pRK5 plasmids under the control of CMV promoter ([Uusi-Oukari et al., 2000]). The plasmids were used in 1:1 and 1:1:1 ratio for transfections containing α1β3γ2S, α6β3, α6β3γ2S, and α6β3δ receptor subtypes. […] (Supplementary Figure S1). For electrophysiology, K4® transfection system (Biontex, München, Germany) was used according to the manufacturer’s protocol to increase expression efficiency and cell viability. […] The medium was changed 24 h after transfection and all experiments were performed 48 h after transfection.
(§1) The protein concentrations of brain membranes were determined with the Bio-Rad Coomassie blue dye-based protein assay kit (Hercules, CA, United States) as per the manufacturer’s protocol. Transfected HEK293 cells were harvested 48 h after transfection using a detaching buffer (10 mM Tris-HCl, 0.15 M NaCl, 2 mM EDTA) and centrifuged at 20,000 g for 10 min at +4 °C. The resulting pellets were suspended in the assay buffer for binding assays.
(§2) In humulone concentration series with recombinant α6β3, α6β3γ2S, and α6β3δ receptors, HEK293 cell membranes were incubated in the same above conditions for 120 min with [^3H]EBOB (1 nM) and different concentrations of humulone (30 nM–30 μM) in the presence or absence of ethanol (30 mM). […] Picrotoxin (100 μM) was used to determine the non-specific binding in all assays.
(§3) Membrane samples were filtered through Whatman GF/B glass fiber filters (Whatman International Ltd., Maidstone, United Kingdom) using a Brandel Cell Harvester (model M-24, Gaithersburg, MD, United States). The filters were rinsed three times with 5 mL of ice-cold 10 mM Tris-HCl, pH 7.4 buffer. Air-dried filters were immersed in 3 mL of Hidex AquaLight Beta scintillation liquid and radioactivity was determined in Hidex 600 SL liquid scintillation counter (Hidex, Turku, Finland).

Data set [2] concerns native αβγ2 GABAA receptors, classical benzodiazepine binding site. More on the design: method as in Benkherouf et al., 2019, 2020. The note with it: ref Benkherouf et al., 2019, 2020, cited from earlier work.
Data set [3] deals with native GABAA receptors in rat cerebellar membranes. The data set is classed as binding. The conditions noted are these: humulone 1 μM + ethanol 30 mM; from Table 1. As to the method: as §1, §2, §3
Another data set relates to mice. More on the design: method as in Schiller et al., 2006. The conditions noted are these: ref Schiller et al., 2006, cited from earlier work.
For a further data set, the system named is BALB/cAnNRj mice. Put plainly: Pentobarbital-induced sleep test.
On the set-up of data set [4]: method as in Fritsch and Shellhammer, 2007. The note with it: ref Fritsch and Shellhammer, 2007; cited from earlier work.
Data set [5] concerns the target native GABAA receptors in rat forebrain membranes. More on the design: method as in Benkherouf et al., 2020. The conditions noted are these: ref Benkherouf et al., 2020, cited from earlier work.
The test system of data set [6] is native GABAA receptors in rat forebrain membranes. Put plainly: [3H]EBOB binding assay, rat forebrain membranes. The note with it: each compound 1 μM, GABA 3 μM, n = 3. The method, then: as §1, §2, §3
The subject of the next data set is rats. The note with it: ref Bejeuhr, 1993, cited from earlier work.
Where [7] appears, read: humulone 10 mg/kg i.p., pentobarbital sodium 35 mg/kg i.p.

T1 sequence (P30191 20-453): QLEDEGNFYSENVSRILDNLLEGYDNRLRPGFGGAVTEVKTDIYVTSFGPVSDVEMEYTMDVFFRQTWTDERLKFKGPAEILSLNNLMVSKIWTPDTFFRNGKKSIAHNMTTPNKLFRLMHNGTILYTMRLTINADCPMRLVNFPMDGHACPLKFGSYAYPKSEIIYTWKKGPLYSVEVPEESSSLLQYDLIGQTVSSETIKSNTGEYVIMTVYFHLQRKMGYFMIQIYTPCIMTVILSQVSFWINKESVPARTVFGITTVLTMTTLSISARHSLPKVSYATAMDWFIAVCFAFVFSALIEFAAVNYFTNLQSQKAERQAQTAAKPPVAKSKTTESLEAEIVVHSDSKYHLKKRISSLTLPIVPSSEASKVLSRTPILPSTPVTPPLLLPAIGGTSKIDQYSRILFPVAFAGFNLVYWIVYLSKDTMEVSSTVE
T1 sequence (P63079 26-473): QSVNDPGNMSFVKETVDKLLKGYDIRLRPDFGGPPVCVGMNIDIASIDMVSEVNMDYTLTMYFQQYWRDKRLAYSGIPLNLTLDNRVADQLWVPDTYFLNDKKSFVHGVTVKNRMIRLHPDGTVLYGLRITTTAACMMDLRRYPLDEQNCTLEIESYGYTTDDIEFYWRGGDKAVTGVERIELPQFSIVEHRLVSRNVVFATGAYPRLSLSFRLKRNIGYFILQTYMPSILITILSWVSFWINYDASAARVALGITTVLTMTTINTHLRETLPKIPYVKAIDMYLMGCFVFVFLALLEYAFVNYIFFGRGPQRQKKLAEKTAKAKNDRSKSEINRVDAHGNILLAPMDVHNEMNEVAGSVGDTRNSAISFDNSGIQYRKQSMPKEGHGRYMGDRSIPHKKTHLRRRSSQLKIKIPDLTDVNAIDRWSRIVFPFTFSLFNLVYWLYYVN
Protocol for BALB/cAnNRj mice: As an index of drug-induced CNS inhibition, sleep latency (time between pentobarbital administration and loss of righting reflex) and duration of sleep (time between loss and recovery of righting reflex) were measured with a chronometer for each mouse. The recovery of the righting reflex was confirmed by the ability of the mice to re-right 3 times within 1 min. The drugs were freshly prepared before use, and the total injection volume (13 mL/kg) was retained constant.

As to `CC(C)=CCC1=C(O)[C@@](O)(CC=C(C)C)C(=O)C(C(=O)CC(C)C)=C1O` [humulone], the “concentration at which potentiation of GABA-induced [3H]EBOB displacement was observed” value in [1] was at least 10 µM. Besides, in data set [1] (humulone 1 μM), the “effect on [3H]EBOB displacement induced by GABA” value is given as “absent”. The “displacement of [3H]Ro 15-4513 binding (benzodiazepine binding site)” value is “very weak displacement” in data set [2] and “low potency” in [2] (listed as humulone fraction). Also, in data set [3], the “extent of humulone non-competitive synergy with ethanol, cerebellum compared to forebrain” value is reported as 11.2%. For the same molecule, in the data set with mice (humulone component in alpha acid extract at 21 mg/kg), the “duration of sleep induced by ketamine” value is on record as “increase”. In addition, in the data set with mice (humulone component in alpha acid extract at 42 mg/kg), the “duration of sleep induced by ketamine, additional effect at higher dose” value is “no additional effect”. Besides, the “duration of sleep induced by pentobarbital” value in the data set with BALB/cAnNRj mice (setting [7]) is reported as “not observed”; in the data set on BALB/cAnNRj mice (humulone 20 mg/kg i.p., 45 min before pentobarbital sodium 35 mg/kg i.p., vs control, p < 0.001), “prolonged”. For the same molecule, the “sleep latency induced by pentobarbital” value is reported as “not observed” with BALB/cAnNRj mice (setting [7]) and “significantly decreased” in the data set with BALB/cAnNRj mice (humulone 20 mg/kg i.p., 45 min before pentobarbital sodium 35 mg/kg i.p., vs control, p < 0.01). For the same molecule, the solubility in beer in [4] is 14 µg/mL (≈ 38.6 µM). Moreover, in [5] (rat forebrain membranes, read-out: IC50, modulation of [3H]EBOB binding), the IC50 – broadly, the point on the concentration scale where inhibition reaches its midpoint – is 3.2 ± 0.4 µM. Also, the “sensitivity of modulatory effect on [3H]EBOB binding to flumazenil antagonism” value in [5] was “insensitive”; in data set [5] (listed as humulone fraction), “insensitivity”. For the same molecule, the “[3H]EBOB displacement normalized to the maximum radioligand binding in the presence of 3 μM GABA alone” value in data set [6] is 13.5 ± 1.5%. Besides, the LD50 is listed as 600 mg/kg/b.w in the data set on rats (i.m. (rats)) and 1,500 mg/kg/b.w in the data set on rats (p.o., rodents).
